Measured values reported in PubChem BioAssay (NCI).
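Growth conditions: 96-well plates. Treatment: test compound, 48 hours, 5 concentrations. Analysis: linear interpolation between bracketing concentrations; unreached endpoints set to highest concentration. GI50 marks 50% less growth. The concentration for full growth arrest is given as TGI.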

How the values were obtained:
Experiment in all cases: NCI tumour cell line growth inhibition, 48 h
ACHN renal = system: ACHN renal
MDA-MB-435 = system: MDA-MB-435
T-47D breast = system: T-47D breast
DU-145 prostate = system: DU-145 prostate
MDA-MB-231 breast = system: MDA-MB-231 breast
M19-MEL melanoma = system: M19-MEL melanoma
SN12K1 renal = system: SN12K1 renal
DMS 114 small cell lung = system: DMS 114 small cell lung
DMS 273 small cell lung = system: DMS 273 small cell lung
SNB-78 CNS = system: SNB-78 CNS
P388 leukemia = system: P388 leukemia
BT-549 breast = system: BT-549 breast
HS 578T breast = system: HS 578T breast
MDA-N = system: MDA-N

SMILES	TGI (ACHN renal) [µM]	TGI (MDA-MB-435) [µM]	TGI (T-47D breast) [µM]	TGI (DU-145 prostate) [µM]	TGI (MDA-MB-231 breast) [µM]	TGI (M19-MEL melanoma) [µM]	TGI (DMS 114 small cell lung) [µM]	TGI (DMS 273 small cell lung) [µM]	TGI (SNB-78 CNS) [µM]	TGI (BT-549 breast) [µM]	TGI (HS 578T breast) [µM]	TGI (MDA-N) [µM]	other results
S=c1[nH]n2c(COc3ccc(Cl)cc3)nnc2s1	> 100	> 100	> 100	> 100	> 100								
CSCC(CO)NC(=O)/C=C/c1c(C)[nH]c(=O)[nH]c1=O (centres undefined)						> 875	> 801	> 875	> 875				TGI (SN12K1 renal): > 875 µM; TGI (P388 leukemia): > 875 µM
c1ccc2c(c1)SCCc1cn[nH]c1-2						> 100	> 100	> 100	> 100				TGI (SN12K1 renal): > 100 µM; TGI (P388 leukemia): > 100 µM
O=C(Sc1n[nH]c(=O)[nH]c1=O)c1cccc2nc3ccccc3nc12	> 100	29	> 100	36.2	> 100					> 100	77.8	28.6	
Nc1ccc(Cn2ccc3c4c(N)nc(N)nc4ccc32)cc1	6.58	6.15	6.18	14.3	3.48	5.59	1.94	11.9	32.5	16.4	7.32	14.2	
CC(=O)OC1CC(OC2C(O)CC(OC3C(O)CC(OC4CCC5(C)C(CCC6C5CCC5(C)C(C7=CC(=O)OC7)CCC65O)C4)OC3C)OC2C)OC(C)C1OC1OC(CO)C(O)C(O)C1O (centres undefined)	0.0942	0.172	0.344	0.0489	2.98					0.0984	0.0926	0.152	
O=S(O)CCCSSSCCCS(=O)O	> 100					> 100	> 100		> 100				
Cc1cccc2c1Sc1ccccc1C2NC(=O)CN(C)C (centres undefined)	> 100					> 100	> 100	> 100	> 100				
COCCNCc1ccc(-c2cc3nccc(Oc4ccc(NC(=O)C5(C(=O)Nc6ccc(F)cc6)CC5)cc4F)c3s2)nc1		2.68	6.29	4.51							4		GI50 (HS 578T breast): 1.06 µM; GI50 (MDA-MB-435): 1.31 µM; GI50 (T-47D breast): 2.01 µM; GI50 (DU-145 prostate): 2.06 µM
CN(c1ccccc1)c1nc(=[N+]2CCCC2)ss1	> 100						> 100	> 100	> 100				
CO/C=C1\OC(=O)C=C1OC						> 100	> 100	> 100	> 100				TGI (SN12K1 renal): > 100 µM; TGI (P388 leukemia): > 100 µM
NNC(=O)c1cc([N+](=O)[O-])ccc1NC(=O)C12CC3CC(CC(C3)C1)C2	36.1	48.5	72.2	> 100	56.5					> 100	28.8	> 100	
Cc1ccc(Nc2nc(=O)c3c([nH]c4ccccc43)s2)cc1	35.4	7.4	43.7	32.5	33.8					33.5	75	5.87	
CN(C)c1cccc(OC(=O)NCCCl)c1						> 100	> 100	> 100	> 100				TGI (SN12K1 renal): > 100 µM; GI50 (SNB-78 CNS): > 100 µM
O=C1C(c2c(O)[nH]c3ccc(Cl)cc23)=Nc2ccccc21	20.3	> 100	> 100	> 25.9	6.9					> 100	24.1	> 100	
c1csc(-c2ccc(CNc3c4ccccc4nc4ccccc34)cc2)c1		1.09	55.6	3.07						14.1			GI50 (BT-549 breast): 3.87 µM; GI50 (MDA-MB-435): 0.322 µM; GI50 (T-47D breast): 13.6 µM; GI50 (DU-145 prostate): 1.65 µM
c1ccc2c(c1)SP1Sc3ccccc3P21 (centres undefined)						> 100	> 100	> 100	> 100				TGI (SN12K1 renal): > 100 µM; TGI (P388 leukemia): > 100 µM
CC1(C)N=C(c2ccccc2)SC12S[C@@H]1CCCC[C@H]1S2	> 100	> 100	> 100	> 100	> 100					> 100	16.8	93.5	
